Experimental findings from ChEMBL document CHEMBL5465560, “Selectivity Literature for EUbOPEN Chemogenomic Library” (2024) are described below.

The test system of test [1] is Tyrosine-protein kinase receptor UFO (Homo sapiens), P30530 [R499C]. The test can be described thus: Selectivity interaction (LanthaScreen Eu Kinase Binding Assay) EUB0001632a AXL. The settings on record: at 10 µM. For orientation: TR-FRET usually uses a lanthanide donor and a delayed reading to cut background.
Test [2] deals with T1, Mitogen-activated protein kinase kinase kinase 12 (Homo sapiens) (UniProt Q12852).
T1 sequence (whole entry): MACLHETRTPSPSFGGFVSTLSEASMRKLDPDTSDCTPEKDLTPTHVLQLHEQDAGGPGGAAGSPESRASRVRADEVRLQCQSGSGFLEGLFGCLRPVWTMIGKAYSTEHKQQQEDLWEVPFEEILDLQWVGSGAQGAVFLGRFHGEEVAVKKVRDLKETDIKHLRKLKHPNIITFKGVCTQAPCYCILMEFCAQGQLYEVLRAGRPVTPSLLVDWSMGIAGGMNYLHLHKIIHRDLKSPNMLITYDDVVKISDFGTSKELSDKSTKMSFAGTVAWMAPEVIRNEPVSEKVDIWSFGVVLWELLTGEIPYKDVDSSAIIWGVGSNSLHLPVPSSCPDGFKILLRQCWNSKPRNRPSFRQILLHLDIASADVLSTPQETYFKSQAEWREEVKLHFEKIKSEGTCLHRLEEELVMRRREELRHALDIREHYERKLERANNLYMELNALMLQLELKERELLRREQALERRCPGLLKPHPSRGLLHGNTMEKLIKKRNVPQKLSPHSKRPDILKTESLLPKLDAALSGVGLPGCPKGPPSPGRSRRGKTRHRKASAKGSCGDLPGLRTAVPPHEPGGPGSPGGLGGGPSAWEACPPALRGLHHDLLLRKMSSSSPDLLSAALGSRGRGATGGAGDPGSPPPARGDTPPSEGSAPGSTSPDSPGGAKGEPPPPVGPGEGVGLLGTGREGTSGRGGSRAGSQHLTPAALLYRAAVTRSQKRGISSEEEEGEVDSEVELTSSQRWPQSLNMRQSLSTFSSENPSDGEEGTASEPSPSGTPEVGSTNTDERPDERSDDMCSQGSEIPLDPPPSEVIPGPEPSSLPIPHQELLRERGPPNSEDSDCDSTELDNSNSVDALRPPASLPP
The test can be described thus: Selectivity interaction (Ambit KINOMEscan and KiNATiv profiling in Jurkat cells) EUB0000090b MAP3K12. The format is cell-based. As to conditions: at 1 µM.

For test [3], the target named is Serine/threonine-protein kinase PAK 1 (Homo sapiens) (UniProt Q13153). Kind of test: Selectivity interaction (Ambit KINOMEscan and KiNATiv profiling in Jurkat cells) EUB0000090b PAK1. The settings on record: at 1 µM. The format is cell-based.
For test [4], the target named is T2, Serine/threonine-protein kinase DCLK1 (Homo sapiens) (UniProt O15075).
T2 sequence (whole entry): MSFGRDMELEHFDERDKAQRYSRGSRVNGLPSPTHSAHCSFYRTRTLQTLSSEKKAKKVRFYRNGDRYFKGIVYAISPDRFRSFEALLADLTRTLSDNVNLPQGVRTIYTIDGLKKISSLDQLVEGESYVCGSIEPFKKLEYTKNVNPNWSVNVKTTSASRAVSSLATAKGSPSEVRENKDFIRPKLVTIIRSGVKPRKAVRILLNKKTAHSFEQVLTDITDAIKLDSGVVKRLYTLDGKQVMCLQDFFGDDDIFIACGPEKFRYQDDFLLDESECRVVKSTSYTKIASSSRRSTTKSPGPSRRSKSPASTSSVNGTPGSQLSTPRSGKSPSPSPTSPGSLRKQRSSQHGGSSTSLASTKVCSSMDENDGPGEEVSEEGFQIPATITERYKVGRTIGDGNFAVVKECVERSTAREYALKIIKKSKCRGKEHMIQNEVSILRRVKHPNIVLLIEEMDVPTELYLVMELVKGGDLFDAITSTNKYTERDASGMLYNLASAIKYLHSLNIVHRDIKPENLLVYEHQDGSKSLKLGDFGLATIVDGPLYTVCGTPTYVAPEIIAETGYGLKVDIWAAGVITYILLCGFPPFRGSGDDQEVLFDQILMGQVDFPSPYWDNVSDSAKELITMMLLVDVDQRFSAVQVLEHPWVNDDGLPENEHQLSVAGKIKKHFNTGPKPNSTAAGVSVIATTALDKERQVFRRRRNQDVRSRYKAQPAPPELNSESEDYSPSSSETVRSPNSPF
The test can be described thus: Selectivity interaction (KinomeScan (DiscoverX)) EUB0000666a DCLK1. As to conditions: at 10 µM.

Test [5] deals with Mitogen-activated protein kinase 1 (Homo sapiens, UniProt P28482). Kind of test: Selectivity interaction (ActivX KiNativ screen (kinase selectivity in THP-1 cell lysates)) EUB0000639a MAPK1. The format is subcellular. As to conditions: lysate, at 5 µM.
Test [6] concerns the target Serine/threonine-protein kinase 24 (Homo sapiens) (UniProt Q9Y6E0). The test can be described thus: Selectivity interaction (ActivX KiNativ screen (kinase selectivity in THP-1 cell lysates)) EUB0000639a STK24. The format is subcellular. As to conditions: lysate, at 5 µM.
Test [7] has as its system Proto-oncogene tyrosine-protein kinase receptor Ret (Homo sapiens), P07949 [V804M]. The test can be described thus: (§1) Selectivity interaction (KinomeScan (DiscoverX)) EUB0001049a RET. As to conditions: at 1 µM.
The test system of test [8] is Proto-oncogene tyrosine-protein kinase receptor Ret (Homo sapiens), P07949 [M918T]. The description is as §1. As to conditions: at 1 µM.
In test [9] the target is Proto-oncogene tyrosine-protein kinase receptor Ret (Homo sapiens, UniProt P07949). The test is described as §1. The settings on record: at 1 µM.
In test [10] the test system is Proto-oncogene tyrosine-protein kinase receptor Ret (Homo sapiens), P07949 [V804L]. Described as §1. The settings on record: at 1 µM.
Test [11] deals with Phosphorylase b kinase gamma catalytic chain, skeletal muscle/heart isoform (Homo sapiens) (UniProt Q16816). The test can be described thus: Selectivity interaction (KinomeScan (DiscoverX)) EUB0000092b PHKG1. As to conditions: at 10 µM.
Test [12] addresses Ribosomal protein S6 kinase alpha-6 (Homo sapiens, UniProt Q9UK32). Kind of test: Selectivity interaction (KinomeScan (DiscoverX)) EUB0000045b RPS6KA6.
Test [13] deals with Serine/threonine-protein kinase Chk2 (Homo sapiens) (UniProt O96017). The test can be described thus: Selectivity interaction (Upstate Kinase Profiler service (Millipore)) EUB0000056c CHEK2. The settings on record: at 1 µM.

Molecules are shown by their SMILES.

Sequence of Ribosomal protein S6 kinase alpha-6 (Q9UK32 whole entry): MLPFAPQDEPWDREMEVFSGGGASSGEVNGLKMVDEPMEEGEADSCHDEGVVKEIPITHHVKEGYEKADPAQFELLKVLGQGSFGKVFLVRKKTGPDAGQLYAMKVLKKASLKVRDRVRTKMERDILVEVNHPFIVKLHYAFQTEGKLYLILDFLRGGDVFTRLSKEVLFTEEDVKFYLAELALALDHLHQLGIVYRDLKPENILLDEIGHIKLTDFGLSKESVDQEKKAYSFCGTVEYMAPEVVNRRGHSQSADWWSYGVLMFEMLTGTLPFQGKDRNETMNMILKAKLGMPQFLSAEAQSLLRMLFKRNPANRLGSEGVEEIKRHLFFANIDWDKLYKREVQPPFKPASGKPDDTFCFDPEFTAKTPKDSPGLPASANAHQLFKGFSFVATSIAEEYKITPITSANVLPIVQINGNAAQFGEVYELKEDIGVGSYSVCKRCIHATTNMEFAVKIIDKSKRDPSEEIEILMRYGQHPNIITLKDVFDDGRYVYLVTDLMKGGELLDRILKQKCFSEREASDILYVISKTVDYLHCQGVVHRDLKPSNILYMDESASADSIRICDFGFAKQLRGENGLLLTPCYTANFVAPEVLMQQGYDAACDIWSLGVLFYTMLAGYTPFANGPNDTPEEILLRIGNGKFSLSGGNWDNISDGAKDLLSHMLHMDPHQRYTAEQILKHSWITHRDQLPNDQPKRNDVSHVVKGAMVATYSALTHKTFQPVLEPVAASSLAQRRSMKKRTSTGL
Sequence of Phosphorylase b kinase gamma catalytic chain, skeletal muscle/heart isoform (Homo sapiens) (Q16816 whole entry, looked up, canonical isoform): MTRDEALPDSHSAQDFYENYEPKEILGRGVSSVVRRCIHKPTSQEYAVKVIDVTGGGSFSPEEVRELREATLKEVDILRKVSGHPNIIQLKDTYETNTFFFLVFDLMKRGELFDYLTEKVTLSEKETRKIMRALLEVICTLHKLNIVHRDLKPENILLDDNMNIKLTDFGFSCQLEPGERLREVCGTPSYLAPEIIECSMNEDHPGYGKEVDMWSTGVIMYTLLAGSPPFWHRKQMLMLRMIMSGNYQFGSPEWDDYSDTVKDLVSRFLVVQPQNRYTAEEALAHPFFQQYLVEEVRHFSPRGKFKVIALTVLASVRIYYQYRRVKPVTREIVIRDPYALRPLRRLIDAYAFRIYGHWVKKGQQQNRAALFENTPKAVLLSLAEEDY
Sequence of Tyrosine-protein kinase receptor UFO (Homo sapiens), P30530 [R499C] (P30530 whole entry R499C): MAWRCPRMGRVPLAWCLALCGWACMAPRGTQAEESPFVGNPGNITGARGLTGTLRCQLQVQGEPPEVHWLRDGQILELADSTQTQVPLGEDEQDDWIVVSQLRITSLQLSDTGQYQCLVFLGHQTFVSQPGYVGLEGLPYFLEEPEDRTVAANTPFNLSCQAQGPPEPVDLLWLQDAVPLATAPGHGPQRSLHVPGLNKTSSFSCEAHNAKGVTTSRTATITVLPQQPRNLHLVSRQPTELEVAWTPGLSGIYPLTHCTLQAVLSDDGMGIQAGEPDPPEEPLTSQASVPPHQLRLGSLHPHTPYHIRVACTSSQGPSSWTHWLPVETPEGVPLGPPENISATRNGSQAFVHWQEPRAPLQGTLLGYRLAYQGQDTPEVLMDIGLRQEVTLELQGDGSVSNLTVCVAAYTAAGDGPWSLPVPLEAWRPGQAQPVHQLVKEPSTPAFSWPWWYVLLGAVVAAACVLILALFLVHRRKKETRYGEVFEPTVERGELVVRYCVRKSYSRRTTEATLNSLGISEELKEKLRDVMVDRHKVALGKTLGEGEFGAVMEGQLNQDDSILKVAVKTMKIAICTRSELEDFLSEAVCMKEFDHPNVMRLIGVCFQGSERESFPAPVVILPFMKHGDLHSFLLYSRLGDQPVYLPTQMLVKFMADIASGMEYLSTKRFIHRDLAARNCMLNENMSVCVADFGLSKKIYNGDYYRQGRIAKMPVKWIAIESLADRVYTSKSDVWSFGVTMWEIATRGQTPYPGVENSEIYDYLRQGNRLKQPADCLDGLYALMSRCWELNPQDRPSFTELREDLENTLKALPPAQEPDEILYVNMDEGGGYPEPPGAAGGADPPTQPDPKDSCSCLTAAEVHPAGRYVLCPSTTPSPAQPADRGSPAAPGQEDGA
Sequence of Proto-oncogene tyrosine-protein kinase receptor Ret (P07949 whole entry): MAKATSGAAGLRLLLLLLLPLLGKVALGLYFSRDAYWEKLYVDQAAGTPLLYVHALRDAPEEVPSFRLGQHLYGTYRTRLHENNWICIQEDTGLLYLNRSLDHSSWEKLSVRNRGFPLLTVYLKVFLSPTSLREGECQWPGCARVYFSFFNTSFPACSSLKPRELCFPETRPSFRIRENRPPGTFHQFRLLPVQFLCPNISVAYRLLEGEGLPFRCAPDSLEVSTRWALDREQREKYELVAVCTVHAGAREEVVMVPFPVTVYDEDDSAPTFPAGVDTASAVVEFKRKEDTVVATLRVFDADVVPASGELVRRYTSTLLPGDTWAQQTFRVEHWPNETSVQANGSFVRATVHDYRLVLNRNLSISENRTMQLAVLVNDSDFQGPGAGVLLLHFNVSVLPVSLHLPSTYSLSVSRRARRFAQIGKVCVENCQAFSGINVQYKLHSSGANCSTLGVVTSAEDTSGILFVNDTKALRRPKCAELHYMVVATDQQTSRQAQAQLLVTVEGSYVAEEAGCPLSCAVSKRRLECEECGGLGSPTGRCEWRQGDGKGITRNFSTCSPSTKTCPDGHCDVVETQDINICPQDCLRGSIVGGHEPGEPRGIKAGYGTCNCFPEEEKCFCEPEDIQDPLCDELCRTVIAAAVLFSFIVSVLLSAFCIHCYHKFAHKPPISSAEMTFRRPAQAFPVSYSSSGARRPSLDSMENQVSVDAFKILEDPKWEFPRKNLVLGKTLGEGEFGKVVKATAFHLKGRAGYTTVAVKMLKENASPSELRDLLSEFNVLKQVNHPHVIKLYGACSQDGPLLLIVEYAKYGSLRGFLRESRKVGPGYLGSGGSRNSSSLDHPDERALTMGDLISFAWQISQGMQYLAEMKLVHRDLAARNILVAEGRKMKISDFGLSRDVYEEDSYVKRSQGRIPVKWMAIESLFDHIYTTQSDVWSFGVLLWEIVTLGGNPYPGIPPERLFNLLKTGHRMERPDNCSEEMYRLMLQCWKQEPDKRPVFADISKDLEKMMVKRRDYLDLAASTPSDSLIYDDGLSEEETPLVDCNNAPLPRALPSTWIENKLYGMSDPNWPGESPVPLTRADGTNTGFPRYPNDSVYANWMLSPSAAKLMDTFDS
Sequence of Proto-oncogene tyrosine-protein kinase receptor Ret (Homo sapiens), P07949 [V804M] (P07949 whole entry V804M): as the sequence (P07949 whole entry) above, with V804M counted along it
Sequence of Proto-oncogene tyrosine-protein kinase receptor Ret (Homo sapiens), P07949 [V804L] (P07949 whole entry V804L, canonical isoform): as the sequence (P07949 whole entry) above, with V804L counted along it
Sequence of Serine/threonine-protein kinase 24 (Homo sapiens) (Q9Y6E0 whole entry, looked up): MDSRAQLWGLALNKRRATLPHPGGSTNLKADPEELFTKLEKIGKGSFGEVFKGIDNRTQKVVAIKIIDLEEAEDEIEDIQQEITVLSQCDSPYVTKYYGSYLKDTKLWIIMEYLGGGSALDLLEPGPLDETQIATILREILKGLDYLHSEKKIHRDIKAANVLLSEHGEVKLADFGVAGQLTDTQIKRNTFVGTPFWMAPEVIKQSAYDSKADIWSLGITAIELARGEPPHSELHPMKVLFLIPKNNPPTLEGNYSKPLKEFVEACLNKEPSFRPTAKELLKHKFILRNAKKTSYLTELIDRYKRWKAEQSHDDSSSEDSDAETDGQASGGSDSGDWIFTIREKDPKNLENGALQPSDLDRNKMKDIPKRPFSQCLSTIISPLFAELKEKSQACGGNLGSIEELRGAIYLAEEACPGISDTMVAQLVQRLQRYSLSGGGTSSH
Sequence of Serine/threonine-protein kinase Chk2 (Homo sapiens) (O96017 whole entry): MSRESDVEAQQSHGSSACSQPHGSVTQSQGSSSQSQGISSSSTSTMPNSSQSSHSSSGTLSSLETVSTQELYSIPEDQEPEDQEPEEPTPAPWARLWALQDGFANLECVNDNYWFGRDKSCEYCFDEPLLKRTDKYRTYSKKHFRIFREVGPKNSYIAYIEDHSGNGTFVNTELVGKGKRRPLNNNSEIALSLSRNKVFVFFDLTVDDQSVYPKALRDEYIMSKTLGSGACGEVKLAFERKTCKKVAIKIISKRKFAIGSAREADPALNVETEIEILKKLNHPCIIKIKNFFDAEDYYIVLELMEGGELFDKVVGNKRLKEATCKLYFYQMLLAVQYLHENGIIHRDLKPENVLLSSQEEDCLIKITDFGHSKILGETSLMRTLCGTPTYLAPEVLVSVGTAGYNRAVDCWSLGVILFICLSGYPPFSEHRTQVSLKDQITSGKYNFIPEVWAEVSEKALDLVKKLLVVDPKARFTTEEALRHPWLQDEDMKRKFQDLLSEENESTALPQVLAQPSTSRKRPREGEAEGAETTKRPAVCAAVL
Sequence of Mitogen-activated protein kinase 1 (P28482 whole entry): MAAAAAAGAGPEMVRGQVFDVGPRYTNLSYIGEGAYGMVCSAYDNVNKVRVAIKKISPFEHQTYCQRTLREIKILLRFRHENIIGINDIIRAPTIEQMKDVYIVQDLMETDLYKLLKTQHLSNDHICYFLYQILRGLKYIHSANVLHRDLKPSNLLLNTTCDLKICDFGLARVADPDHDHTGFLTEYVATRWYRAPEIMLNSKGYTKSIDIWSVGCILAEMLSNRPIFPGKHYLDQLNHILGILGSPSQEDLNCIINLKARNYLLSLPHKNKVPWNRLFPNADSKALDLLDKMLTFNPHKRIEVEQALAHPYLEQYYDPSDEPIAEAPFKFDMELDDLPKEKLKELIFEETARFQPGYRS
Sequence of Proto-oncogene tyrosine-protein kinase receptor Ret (Homo sapiens), P07949 [M918T] (P07949 whole entry M918T): as the sequence (P07949 whole entry) above, with M918T counted along it

Regarding `Cn1cc(-n2cnc3c(NCc4nc5cc(Cl)c(Cl)cc5[nH]4)nc(N4CCOCC4)nc32)cn1`, in [1], the % of inhibition is -15.8%.

Regarding `CN(C)C/C=C/C(=O)Nc1ccc(C(=O)N2CCCC(Nc3ncc(Cl)c(-c4c[nH]c5ccccc45)n3)C2)cc1` (centres undefined), the % of control in test [2] was determined as 89%; in [3] it was 83%.

Take `O=C(NOC[C@H](O)CO)c1ccc(F)c(F)c1Nc1ccc(I)cc1F`: the % of control in test [4] came out at 100%.

In the case of `CC[C@@H]1[C@H](F)C(=O)N[C@@H]1COc1nccc2cc(C(N)=O)c(OC)cc12` [ZIMLOVISERTIB], the results for the % of inhibition in test [5] and in test [6] were 25.2% and 3.2%, respectively.

Take `COc1cc(Nc2nc(C)cc(-c3cnn4nc(OC)ccc34)n2)cc(C(F)(F)F)c1`: the % of control in test [7] stood at 78%; in [8], 98%; in test [9] it was 100%; in test [10] it was 95%.

In turn, `CCC(=O)N1CCN(c2ccc(-n3c(=O)ccc4cnc5ccc(-c6cnc7ccccc7c6)cc5c43)cc2C(F)(F)F)CC1` registered a % of control in [11] of 100%.

For `C=CC(=O)Nc1cc(-n2c(=O)ccc3cnc4ccc(-c5ccc(NS(C)(=O)=O)cc5)cc4c32)ccc1C`, the % of control was 100% in test [12] (at 1 µM) and 56% in [12] (at 10 µM).

Consider `Cc1ccc(-c2ccc3c(ccc4sc5c(c43)NC[C@@H](C)NC5=O)n2)cn1`, for which the % of inhibition in test [13] is 44%.
